Data taken from PubChem BioAssay AID330 (DTP/NCI, 2004).
Values joined by “and” are separate entries in the source; they are usually repeats but may differ in a detail not shown here. Equal entries are not always repeated. Toxic doses and inconclusive results are not listed.

Tested on: P388 leukemia ip, CD2F1 mice, survival T/C
Assay: NCI In Vivo Anticancer Drug Screen. Data for tumor model P388 Leukemia (intraperitoneal) in CD2F1 (CDF1) mice
Settings: endpoint: median survival time, higher = longer survival
How it was run: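 Mice carrying the transplanted tumor received test compound or vehicle. Survival was recorded in each group, and the value is the treated-group measurement divided by that of the vehicle-treated control group.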

[1] = dose: 6.25 mg/kg/injection, schedule: Q01DX005 (ip), vehicle: saline with Tween-80
[2] = dose: 12.5 mg/kg/injection, schedule: Q01DX005 (ip), vehicle: saline with Tween-80
[3] = dose: 6.25 mg/kg/injection, schedule: Q01DX009 (ip), vehicle: Klucel (hydroxypropylcellulose) (HPC)
[4] = dose: 12.5 mg/kg/injection, schedule: Q01DX009 (ip), vehicle: Klucel (hydroxypropylcellulose) (HPC)
[5] = dose: 50.0 mg/kg/injection, schedule: Q01DX005 (ip), vehicle: saline with Tween-80
[6] = dose: 100.0 mg/kg/injection, schedule: Q01DX005 (ip), vehicle: saline with Tween-80
[7] = dose: 200.0 mg/kg/injection, schedule: Q01DX005 (ip), vehicle: saline with Tween-80
[8] = dose: 50.0 mg/kg/injection, schedule: Q01DX005 (ip), vehicle: Klucel (hydroxypropylcellulose) (HPC)
[9] = dose: 60.0 mg/kg/injection, schedule: Q01DX005 (ip), vehicle: Klucel (hydroxypropylcellulose) (HPC)
[10] = dose: 120.0 mg/kg/injection, schedule: Q01DX005 (ip), vehicle: Klucel (hydroxypropylcellulose) (HPC)
[11] = dose: 240.0 mg/kg/injection, schedule: Q01DX005 (ip), vehicle: Klucel (hydroxypropylcellulose) (HPC)

CC(=O)NCCn1nc(-c2ccc(Cl)cc2)c(-c2ccc(Cl)cc2)c(C(C)=O)c1=O
T/C [1]: 103 % of control
T/C [2]: 103 % of control

O=c1[nH]nnc2nc(N3CCOCC3)sc12
T/C (dose: 100.0 mg/kg/injection, schedule: Q01DX001 (ip), vehicle: saline with Tween-80): 103 % of control and 95 % of control
T/C (dose: 200.0 mg/kg/injection, schedule: Q01DX001 (ip), vehicle: saline with Tween-80): 102 % of control and 104 % of control
T/C (dose: 300.0 mg/kg/injection, schedule: Q01DX001 (ip), vehicle: saline with Tween-80): 100 % of control

COc1cc2cc[n+](C)c(Cc3ccccc3)c2cc1OC
T/C (dose: 3.12 mg/kg/injection, schedule: Q01DX009 (ip), vehicle: Klucel (hydroxypropylcellulose) (HPC)): 111 % of control
T/C [3]: 111 % of control
T/C [4]: 114 % of control
T/C (dose: 25.0 mg/kg/injection, schedule: Q01DX009 (ip), vehicle: Klucel (hydroxypropylcellulose) (HPC)): 121 % of control
T/C (dose: 50.0 mg/kg/injection, schedule: Q01DX009 (ip), vehicle: Klucel (hydroxypropylcellulose) (HPC)): 160 % of control

CC1(C)CC2C[C@H]3CC[C@@H]4O[C@]34C2[C@H]1OC(=O)/C=C/c1ccccc1 (some centres undefined)
T/C (dose: 74.5 mg/kg/injection, schedule: Q01DX001 (ip), vehicle: saline with Tween-80): 100 % of control
T/C (dose: 149.0 mg/kg/injection, schedule: Q01DX001 (ip), vehicle: saline with Tween-80): 99 % of control
T/C (dose: 298.0 mg/kg/injection, schedule: Q01DX001 (ip), vehicle: saline with Tween-80): 99 % of control

CC(C)c1cccc(C(C)C)c1NC(=O)OC1CCCCC1C (centres undefined)
T/C (dose: 60.0 mg/kg/injection, schedule: Q01DX005 (ip), vehicle: saline with Tween-80): 94 % of control
T/C (dose: 120.0 mg/kg/injection, schedule: Q01DX005 (ip), vehicle: saline with Tween-80): 90 % of control
T/C (dose: 240.0 mg/kg/injection, schedule: Q01DX005 (ip), vehicle: saline with Tween-80): 98 % of control

CC1=C(c2ccccc2)OC(=O)C(Cl)(Cl)C1N(c1ccccc1)c1ccccc1 (centres undefined)
T/C [5]: 88 % of control
T/C [6]: 93 % of control
T/C [7]: 93 % of control

CC(=O)N=c1c(Br)cc(Br)c(C)n1O
T/C [8]: 93 % of control
T/C (dose: 100.0 mg/kg/injection, schedule: Q01DX005 (ip), vehicle: Klucel (hydroxypropylcellulose) (HPC)): 99 % of control
T/C (dose: 200.0 mg/kg/injection, schedule: Q01DX005 (ip), vehicle: Klucel (hydroxypropylcellulose) (HPC)): 102 % of control

CSc1nc2cc(S(=O)(=O)C(F)F)ccc2s1
T/C [3]: 94 % of control
T/C [4]: 94 % of control

Nc1nc(=O)n(C2OC(CO)C(O)C2O)cc1F (centres undefined)
T/C (dose: 9.0 mg/kg/injection, schedule: Q01DX009 (ip), vehicle: saline sonified): 190 % of control
T/C (dose: 9.0 mg/kg/injection, schedule: Q04DX003 (ip), vehicle: saline sonified): 154 % of control
T/C (dose: 18.0 mg/kg/injection, schedule: Q01DX009 (ip), vehicle: saline sonified): 200 % of control
T/C (dose: 18.0 mg/kg/injection, schedule: Q04DX003 (ip), vehicle: saline sonified): 162 % of control
T/C (dose: 24.0 mg/kg/injection, schedule: Q04DX003 (ip), vehicle: saline with Tween-80): 181 % of control
T/C (dose: 36.0 mg/kg/injection, schedule: Q01DX009 (ip), vehicle: saline sonified): 236 % of control
T/C (dose: 36.0 mg/kg/injection, schedule: Q04DX003 (ip), vehicle: saline sonified): 162 % of control
T/C (dose: 36.0 mg/kg/injection, schedule: Q04DX003 (ip), vehicle: saline with Tween-80): 172 % of control
T/C (dose: 54.0 mg/kg/injection, schedule: Q04DX003 (ip), vehicle: saline with Tween-80): 186 % of control

O=C(Nc1ccc(C2=NCCN2)cc1)c1ccc(C(=O)Nc2ccc(C3=NCCN3)cc2)c(NC(=O)c2ccc(C(=O)Nc3cc(C(=O)Nc4ccc(C5=NCCN5)cc4)ccc3C(=O)Nc3ccc(C4=NCCN4)cc3)cc2)c1
T/C (dose: 25.0 mg/kg/injection, schedule: Q01DX010 (ip), vehicle: saline): 90 % of control
T/C (dose: 50.0 mg/kg/injection, schedule: Q01DX010 (ip), vehicle: saline): 86 % of control
T/C (dose: 100.0 mg/kg/injection, schedule: Q01DX010 (ip), vehicle: saline): 100 % of control
T/C (dose: 200.0 mg/kg/injection, schedule: Q01DX010 (ip), vehicle: saline): 100 % of control

CCN(CC)CCNc1ncnc2[nH]ncc12
T/C (dose: 50.0 mg/kg/injection, schedule: Q01DX005 (ip), vehicle: saline): 106 % of control
T/C (dose: 100.0 mg/kg/injection, schedule: Q01DX005 (ip), vehicle: saline): 101 % of control

[Cl][Sb]([Cl])([Cl])([c]1ccccc1)[c]1ccccc1
T/C (dose: 6.25 mg/kg/injection, schedule: Q01DX009 (ip), vehicle: saline): 101 % of control
T/C (dose: 12.5 mg/kg/injection, schedule: Q01DX009 (ip), vehicle: saline): 98 % of control
T/C (dose: 25.0 mg/kg/injection, schedule: Q01DX009 (ip), vehicle: saline): 91 % of control

N#CC(OC(=O)c1ccccc1)C(OC(=O)c1ccccc1)C(OC(=O)c1ccccc1)C(COC(=O)c1ccccc1)OC(=O)c1ccccc1 (centres undefined)
T/C [1]: 97 % of control
T/C [2]: 95 % of control
T/C (dose: 25.0 mg/kg/injection, schedule: Q01DX005 (ip), vehicle: saline with Tween-80): 86 % of control

COC(=O)c1c2cccc(C)c2nc2c(C)cccc12
T/C [5]: 107 % of control
T/C [6]: 107 % of control
T/C [7]: 100 % of control

COc1cc(OC)cc(C2(C(=O)[C@@H]3OC(C)(C)OC3C)SCCCS2)c1 (some centres undefined)
T/C (dose: 100.0 mg/kg/injection, schedule: Q01DX001 (ip), vehicle: Klucel (hydroxypropylcellulose) (HPC)): 98 % of control
T/C (dose: 200.0 mg/kg/injection, schedule: Q01DX001 (ip), vehicle: Klucel (hydroxypropylcellulose) (HPC)): 94 % of control
T/C (dose: 400.0 mg/kg/injection, schedule: Q01DX001 (ip), vehicle: Klucel (hydroxypropylcellulose) (HPC)): 90 % of control

Cc1cc(C)c(C#N)c(SCC(=O)c2sc3c(C#N)c(C)cc(C)[n+]3c2[O-])n1
T/C [5]: 90 % of control
T/C [6]: 90 % of control
T/C [7]: 95 % of control

COc1cc2ccc3c(c2cc1OC)CN1CCCC1C3 (centres undefined)
T/C (dose: 6.25 mg/kg/injection, schedule: Q01DX005 (ip), vehicle: Klucel (hydroxypropylcellulose) (HPC)): 100 % of control
T/C (dose: 12.5 mg/kg/injection, schedule: Q01DX005 (ip), vehicle: Klucel (hydroxypropylcellulose) (HPC)): 96 % of control
T/C (dose: 25.0 mg/kg/injection, schedule: Q01DX005 (ip), vehicle: Klucel (hydroxypropylcellulose) (HPC)): 100 % of control
T/C [8]: 105 % of control

CC1(O)CC23CC(O)C4(O)C(CC(O)C4(C)C)C(C)(O)C2CCC1C3O (centres undefined)
T/C (dose: 0.25 mg/kg/injection, schedule: Q01DX009 (ip), vehicle: Klucel (hydroxypropylcellulose) (HPC)): 97 % of control
T/C (dose: 0.5 mg/kg/injection, schedule: Q01DX009 (ip), vehicle: Klucel (hydroxypropylcellulose) (HPC)): 103 % of control

Fc1cccc(CSC(=S)Nc2ccc(F)c(F)c2)c1
T/C (dose: 50.0 mg/kg/injection, schedule: Q01DX009 (ip), vehicle: saline): 116 % of control
T/C (dose: 100.0 mg/kg/injection, schedule: Q01DX009 (ip), vehicle: saline): 105 % of control
T/C (dose: 200.0 mg/kg/injection, schedule: Q01DX009 (ip), vehicle: saline): 115 % of control

Nc1n[nH]c(CCCCc2nc(N)n[nH]2)n1
T/C [9]: 97 % of control
T/C [10]: 99 % of control
T/C [11]: 98 % of control

O=[N+]([O-])c1ccc(Cl)cc1C(Nc1nncs1)Nc1nncs1
T/C [9]: 107 % of control
T/C [10]: 106 % of control

CCCCSP(Oc1ccccc1)SCCCC
T/C (dose: 25.0 mg/kg/injection, schedule: Q04DX003 (ip), vehicle: Klucel (hydroxypropylcellulose) (HPC)): 100 % of control
T/C (dose: 50.0 mg/kg/injection, schedule: Q04DX003 (ip), vehicle: Klucel (hydroxypropylcellulose) (HPC)): 108 % of control
T/C (dose: 100.0 mg/kg/injection, schedule: Q04DX003 (ip), vehicle: Klucel (hydroxypropylcellulose) (HPC)): 109 % of control

COc1cc([Se]c2ccccc2)ccc1N(C)C
T/C (dose: 30.0 mg/kg/injection, schedule: Q01DX005 (ip), vehicle: Klucel (hydroxypropylcellulose) (HPC)): 101 % of control
T/C [9]: 107 % of control
T/C [10]: 100 % of control
T/C [11]: 113 % of control

CC1(C)N=C(N)N=C(N)N1c1ccc(OCCNC(=O)Nc2ccc(S(=O)(=O)F)cc2)c(Cl)c1
T/C (dose: 50.0 mg/kg/injection, schedule: Q04DX003 (ip), vehicle: saline): 120 % of control

C(#CCOc1ccc2c(c1)OCO2)COc1ccc2c(c1)OCO2
T/C (dose: 50.0 mg/kg/injection, schedule: Q01DX009 (ip), vehicle: other): 103 % of control
T/C (dose: 100.0 mg/kg/injection, schedule: Q01DX009 (ip), vehicle: other): 104 % of control
T/C (dose: 200.0 mg/kg/injection, schedule: Q01DX009 (ip), vehicle: other): 105 % of control
